Test results: EP3558896B1, “USE OF ARYL S[…] TRIAMIDE UREASE INHIBITORS WITH PHOSPHORUS-[…] FERTILIZERS” (BASF SE, priority 2016, dated 2018)

Test: Decomposition of urease inhibitors on treated urea granules mixed with triple super phosphate (TSP) granules
Type: physicochemical
Conditions: after one day in the absence of TSP granules

SMILES | decomposition of the urease inhibitors
CCCNP(N)(N)=S [NPPT, N-n-propylthiophosphoric acid triamide] | no decomposition
CCCCNP(N)(N)=S [NBPT, N-n-butylthiophosphoric acid triamide] | no decomposition
